Consider 23 compounds from patent US9840513B2 (AbbVie S.à.r.l., priority 2015, dated 2017).

In the experiment the target is T1, F508delCFTR cell surface expression in CFBE41o-F508delCFTR-HRP cells (Homo sapiens, UniProt P13569, DEL508-508).
T1 construct: fused on or other part: Horseradish peroxidase (HRP) reporter inserted in the fourth exofacial (extracellular) loop of CFTR; expression is doxycycline-inducible
In words: Cell Surface Expression-Horse Radish Peroxidase (CSE-HRP) Assay. The conditions noted are these: for EC50: CFBE41o-F508delCFTR-HRP cells, 18-24 hours at 33° C., 8-point curve, highest concentration 20 μM; for Maximum % activity (%): maximum at any tested concentration, normalized to on-plate positive control (3 μM). Format: cell-based. From the text: Cell Surface Expression-Horse Radish Peroxidase (CSE-HRP) Assay:
A cellular assay for measuring the F508delCFTR cell surface expression after correction with test compounds was developed in human lung derived epithelial cell line (CFBE41o-) (Veit G et al, (2012) Mol Biol Cell. 23(21): 4188-4202). This was achieved by expressing the F508delCFTR mutation along with a horseradish peroxidase (HRP) in the fourth exofacial loop and then measuring the HRP activity using luminescence readout from these cells, CFBE41o-F508delCFTR-HRP, that were incubated overnight with the test corrector compounds. Briefly, for this primary assay, the CFBE41o-F508delCFTR-HRP cells were plated in 384-well plates (Greiner Bio-one; Cat 781080) at 4,000 cells/well along with 0.5 μg/mL doxycycline to induce the F508delCFTR-HRP expression and further incubated at 37° C., 5% CO2 for 72 hours. The test compounds were then added at the required concentrations and further incubated for 18-24 hours at 33° C. The highest concentration tested was 20 μM with an 8-point concentration response curve using a 3-fold dilution. Three replicate plates were run to determine one EC50. All plates contained negative controls (dimethyl sulfoxide, DMSO) and positive controls (3 μM of 3-[(2R,4R)-4-({[1-(2,2-difluoro-1,3-benzodioxol-5-yl)cyclopropyl]carbonyl}amino)-7-methoxy-3,4-dihydro-2H-chromen-2-yl]benzoic acid) as well as on-plate concentration response of the positive control. Post incubation, the plates were washed 5× times with Dulbecco's phosphate buffered saline (DPBS), followed by the addition of the HRP substrate, luminol (50 μL), and measuring the HRP activity using luminescence readout on EnVision® Multilabel Plate Reader (Perkin Elmer; product number 2104-0010). The raw counts from the experiment are analyzed using Accelrys® Assay Explorer v3.3.
Z′ greater than 0.5 was used as passing quality control criteria for the plates.
The Z′ is defined as: 1−[3*SDPositive Control+3*SDNegative Control/Absolute(MeanPositive Control−MeanNegative Control)] wherein “SD” is standard deviation.
The % activity measured at each of the 8 test concentrations of the test compound was normalized to the on-plate positive control using the following formula: % activity=[(test compound response DMSO response)/(positive control response DMSO response)]*100
The maximum % activity achieved for the test compound at any tested concentration is presented in Table 1 along with the EC50 calculated using the following general sigmoidal curve with variable Hill slope equation (described as Model 42 in the Accelrys® Assay Explorer v3.3 software): y=(a−d)/(1+(x/c)^b)+d
General sigmoidal curve with concentration, response, top, bottom, EC50 and Hill slope.
This model describes a sigmoidal curve with an adjustable baseline, a. The equation can be used to fit curves where response is either increasing or decreasing with respect to the independent variable, “x”.
“x” is a concentration of drug under test.
“a” is the maximum response, and “d” is the minimum response
“c” is the inflection point (EC50) for the curve. That is, “y” is halfway between the lower and upper asymptotes when x=c.
“b” is the slope-factor or Hill coefficient. The sign of b is positive when the response increases with increasing dose and is negative when the response decreases with increasing dose (inhibition).

Usually EC50 stands for the midpoint of the concentration-response curve.

T1 sequence (P13569 with tags, fused parts or gaps DEL508-508 limits assumed): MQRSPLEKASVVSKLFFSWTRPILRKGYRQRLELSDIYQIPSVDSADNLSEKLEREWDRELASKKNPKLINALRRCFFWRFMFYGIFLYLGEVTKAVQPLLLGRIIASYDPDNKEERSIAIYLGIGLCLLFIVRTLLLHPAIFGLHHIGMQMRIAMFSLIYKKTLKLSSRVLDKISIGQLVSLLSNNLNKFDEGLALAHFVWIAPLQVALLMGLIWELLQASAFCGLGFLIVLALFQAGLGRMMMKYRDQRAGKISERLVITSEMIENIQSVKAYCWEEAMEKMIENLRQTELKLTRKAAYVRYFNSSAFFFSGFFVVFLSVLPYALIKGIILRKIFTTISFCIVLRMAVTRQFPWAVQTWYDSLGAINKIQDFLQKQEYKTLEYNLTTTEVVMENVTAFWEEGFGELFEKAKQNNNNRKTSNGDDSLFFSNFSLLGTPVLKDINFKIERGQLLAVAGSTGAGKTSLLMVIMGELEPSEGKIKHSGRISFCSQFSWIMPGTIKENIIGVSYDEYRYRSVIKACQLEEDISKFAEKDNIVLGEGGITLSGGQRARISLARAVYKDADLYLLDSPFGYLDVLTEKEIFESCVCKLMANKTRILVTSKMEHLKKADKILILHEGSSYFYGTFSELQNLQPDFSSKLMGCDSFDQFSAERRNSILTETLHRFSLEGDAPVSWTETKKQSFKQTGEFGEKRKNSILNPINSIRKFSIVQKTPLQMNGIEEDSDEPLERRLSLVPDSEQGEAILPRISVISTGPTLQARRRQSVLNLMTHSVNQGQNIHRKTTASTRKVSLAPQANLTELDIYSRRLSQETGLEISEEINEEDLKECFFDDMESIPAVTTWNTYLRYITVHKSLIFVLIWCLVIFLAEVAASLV
T1 sequence (P13569 919-1480 limits assumed, stated change not applied): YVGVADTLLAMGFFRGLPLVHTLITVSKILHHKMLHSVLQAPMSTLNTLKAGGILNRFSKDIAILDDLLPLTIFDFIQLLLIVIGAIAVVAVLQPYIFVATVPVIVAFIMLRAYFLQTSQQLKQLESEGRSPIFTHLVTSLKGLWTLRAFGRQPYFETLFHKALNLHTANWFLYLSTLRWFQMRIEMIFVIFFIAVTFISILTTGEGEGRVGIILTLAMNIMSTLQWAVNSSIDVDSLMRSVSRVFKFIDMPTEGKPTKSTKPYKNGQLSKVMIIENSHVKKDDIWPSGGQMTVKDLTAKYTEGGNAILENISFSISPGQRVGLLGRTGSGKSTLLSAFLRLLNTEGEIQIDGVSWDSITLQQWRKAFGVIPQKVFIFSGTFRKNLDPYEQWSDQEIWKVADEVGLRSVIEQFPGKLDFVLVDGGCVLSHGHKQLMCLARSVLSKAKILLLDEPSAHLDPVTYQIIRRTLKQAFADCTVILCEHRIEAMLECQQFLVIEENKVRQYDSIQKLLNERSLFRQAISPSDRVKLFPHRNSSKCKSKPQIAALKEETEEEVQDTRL

Turning to “1-(6-{[(7R)-2,2-difluoro-7-methyl-6,7-dihydro-2H-furo[2,3-f][1,3]benzodioxole-7-carbonyl]amino}pyridin-2-yl)-4,4-dimethylpyrrolidine-3-carboxylic acid [Example 115]”, a half-maximal effect (EC50) was put at 1000 nM and the “Maximum % activity (%)” value was determined as 147%.
As to “4-[(2R,4S,6R)-4-{[(7R)-2,2-difluoro-7-methyl-6,7-dihydro-2H-furo[2,3-f][1,3]benzodioxole-7-carbonyl]amino}-6-methyloxan-2-yl]benzoic acid and 4-[(2S,4R,6S)-4-{[(7R)-2,2-difluoro-7-methyl-6,7-dihydro-2H-furo[2,3-f][1,3]benzodioxole-7-carbonyl]amino}-6-methyloxan-2-yl]benzoic acid [Example 43]”, it took 2510 nM to reach a half-maximal effect (EC50) and the “Maximum % activity (%)” value turned out to be 93%.
As for “4-[(2R,4S,6S)-4-{[(7R)-2,2-difluoro-7-methyl-6,7-dihydro-2H-furo[2,3-f][1,3]benzodioxole-7-carbonyl]amino}-6-phenyloxan-2-yl]benzoic acid and 4-[(2S,4R,6R)-4-{[(7R)-2,2-difluoro-7-methyl-6,7-dihydro-2H-furo[2,3-f][1,3]benzodioxole-7-carbonyl]amino}-6-phenyloxan-2-yl]benzoic acid [Example 34]”, the response was half-maximal at 480 nM (EC50) and the “Maximum % activity (%)” value came to 109%.
For the compound `Cc1ccc(NC(=O)[C@@]2(C)CCc3c2ccc2c3OCO2)cc1-c1cccc(C(=O)O)c1` (single isomer, unassigned) [Example 38], the EC50 stood at 4560 nM and the “Maximum % activity (%)” value was found to be 22%.
On to `C[C@]1(C(=O)N[C@H]2C[C@@H](c3ccc(C(=O)O)cc3)O[C@@H](c3ccccc3)C2)COc2cc3c(cc21)OC(F)(F)O3` (single isomer, unassigned) [Example 45], for which the EC50 came to 920 nM and the “Maximum % activity (%)” value is 111%.
As to `O=C(O)c1ccc([C@@H]2C[C@H](NC(=O)C3(c4ccc5c(c4)OC(F)(F)O5)CC3)c3ccccc3N2)cc1` (single isomer, unassigned) [Example 48], the EC50 was 2770 nM and the “Maximum % activity (%)” value amounted to 27%.
The corresponding values for `COc1ccc2c(c1)O[C@@H](c1ccc(C(=O)O)cc1)C[C@H]2NC(=O)[C@]1(C)CCc2cc3c(cc21)OC(F)(F)O3` (single isomer, unassigned) [Example 49] are 210 nM and 116%.
Consider `COc1ccc2c(c1)O[C@@H](c1ccc(C(=O)O)cc1)C[C@H]2NC(=O)[C@@]1(C)CCc2cc3c(cc21)OC(F)(F)O3` (single isomer, unassigned) [Example 50], for which the midpoint of the response, the EC50, lay at 1670 nM and the “Maximum % activity (%)” value is recorded as 75%.
As to `COc1ccc2c(c1)O[C@@H](c1cccc(C(=O)O)c1)C[C@H]2NC(=O)[C@]1(C)CCc2cc3c(cc21)OC(F)(F)O3` (single isomer, unassigned) [Example 56], the EC50 is 880 nM and the “Maximum % activity (%)” value is 107%.
On the same counts, the results for `COc1ccc2c(c1)O[C@@H](c1cccc(C(=O)O)c1)C[C@H]2NC(=O)[C@@]1(C)CCc2cc3c(cc21)OC(F)(F)O3` (single isomer, unassigned) [Example 57] are 1770 nM and 99%.
Turning to `C[C@@]1(C(=O)N[C@@H]2C[C@H](c3ccc(C(=O)O)cc3)Oc3ccccc32)CCc2cc3c(cc21)OC(F)(F)O3` (single isomer, unassigned) [Example 58], a half-maximal effect (EC50) was put at 420 nM and the “Maximum % activity (%)” value is given as 104%.
With `CC(C)(CO)[C@H]1Cc2cc(NC(=O)[C@@]3(C)COc4cc5c(cc43)OC(F)(F)O5)c(F)cc2N1C[C@@H](O)CO` (single isomer, unassigned) [Example 140], the EC50 came to 1300 nM and the “Maximum % activity (%)” value was determined as 49%.
On the same counts, the results for `CC(C)(CO)[C@@H]1Cc2cc(NC(=O)[C@@]3(C)COc4cc5c(cc43)OC(F)(F)O5)c(F)cc2N1C[C@@H](O)CO` (single isomer, unassigned) [Example 141] are 960 nM and 39%.
The corresponding values for `COc1ccc2c(c1)O[C@@H](c1cnc([C@@H](O)CO)cn1)C[C@H]2NC(=O)[C@@]1(C)COc2cc3c(cc21)OC(F)(F)O3` (single isomer, unassigned) [Example 191] are 70 nM and 123%.
The corresponding values for `COc1ccc2c(c1)O[C@H](c1ccc(OCc3ccccc3)nn1)C[C@H]2NC(=O)[C@@]1(C)COc2cc3c(cc21)OC(F)(F)O3` (single isomer, unassigned) [Example 272] are 260 nM and 108%.
For the compound `COc1ccc2c(c1)O[C@@H](c1ccc(OCc3ccccc3)nn1)C[C@H]2NC(=O)[C@@]1(C)COc2cc3c(cc21)OC(F)(F)O3` (single isomer, unassigned) [Example 273], a half-maximal effect (EC50) was put at 120 nM and the “Maximum % activity (%)” value was found to be 92%.
The corresponding values for `Cc1ccc(NC(=O)C2(C)COc3cc4c(cc32)OC(F)(F)O4)nc1-c1cccc(C(=O)OC(C)(C)C)c1` (stereo not shown) [Example 1, tert-butyl 3-{6-[(2,2-difluoro-7-methyl-6,7-dihydro-2H-furo[2,3-f][1,3]benzodioxole-7-carbonyl)amino]-3-methylpyridin-2-yl}benzoate] are 2050 nM and 100%.
In the case of `Cc1ccc(NC(=O)[C@]2(C)COc3cc4c(cc32)OC(F)(F)O4)nc1-c1cccc(C(=O)OC(C)(C)C)c1` [Example 3, tert-butyl 3-(6-{[(7S)-2,2-difluoro-7-methyl-6,7-dihydro-2H-furo[2,3-f][1,3]benzodioxole-7-carbonyl]amino}-3-methylpyridin-2-yl)benzoate], the EC50 was greater than 20000 nM and the “Maximum % activity (%)” value is given as 3%.
Regarding `Cc1ccc(NC(=O)[C@]2(C)COc3cc4c(cc32)OC(F)(F)O4)nc1-c1cccc(C(=O)O)c1` [Example 4, 3-(6-{[(7S)-2,2-difluoro-7-methyl-6,7-dihydro-2H-furo[2,3-f][1,3]benzodioxole-7-carbonyl]amino}-3-methylpyridin-2-yl)benzoic acid], the EC50 was greater than 20000 nM and the “Maximum % activity (%)” value was found to be 12%.
Regarding `Cc1ccc(NC(=O)[C@@]2(C)COc3cc4c(cc32)OC(F)(F)O4)nc1-c1cccc(C(=O)OC(C)(C)C)c1` [Example 5, tert-butyl 3-(6-{[(7R)-2,2-difluoro-7-methyl-6,7-dihydro-2H-furo[2,3-f][1,3]benzodioxole-7-carbonyl]amino}-3-methylpyridin-2-yl)benzoate], a half-maximal effect (EC50) was put at 3210 nM and the “Maximum % activity (%)” value worked out at 137%.
With `COC(=O)[C@@H]1CCN(c2cccc(NC(=O)C3(C)COc4cc5c(cc43)OC(F)(F)O5)n2)C1` (stereo partly drawn) [Example 7, methyl (3R)-1-{6-[(2,2-difluoro-7-methyl-6,7-dihydro-2H-furo[2,3-f][1,3]benzodioxole-7-carbonyl)amino]pyridin-2-yl}pyrrolidine-3-carboxylate], the EC50 worked out at 3770 nM and the “Maximum % activity (%)” value is listed as 124%.
For the compound `CC1(C(=O)Nc2cccc(N3CC[C@@H](C(=O)O)C3)n2)COc2cc3c(cc21)OC(F)(F)O3` (stereo partly drawn) [Example 8, (3R)-1-{6-[(2,2-difluoro-7-methyl-6,7-dihydro-2H-furo[2,3-f][1,3]benzodioxole-7-carbonyl)amino]pyridin-2-yl}pyrrolidine-3-carboxylic acid], the EC50 worked out at 1470 nM and the “Maximum % activity (%)” value came to 126%.
The corresponding values for `C[C@]1(C(=O)Nc2cccc(N3CC[C@@H](C(=O)O)C3)n2)COc2cc3c(cc21)OC(F)(F)O3` [Example 9, (3R)-1-(6-{[(7R)-2,2-difluoro-7-methyl-6,7-dihydro-2H-furo[2,3-f][1,3]benzodioxole-7-carbonyl]amino}pyridin-2-yl)pyrrolidine-3-carboxylic acid] are 1030 nM and 135%.
